Data taken from patent publication US10221163B2 (priority 2015, dated 2019).
Where two headings read alike, the source gives them in different places.

Columns and labels:
IMP-1 = IMP-1 (Serratia marcescens, UniProt P52699); test: biochemical; format: biochemical; settings: CCF2-FA substrate, 2 pM enzyme, 2 hours at 25° C.
How it was run: (§1)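 Class B activity is measured in the presence of compound by fluorescence with CCF2-FA after a 2-hour incubation at 25° C. IC50 is taken from a 4-parameter fit of semi-logarithmic dose-response data.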

NDM-1 = NDM-1 (Klebsiella pneumoniae, UniProt C7C422); test: biochemical; format: biochemical; settings: fluorescence assay, CCF2-FA substrate, 1 pM enzyme, 2 hours at 25° C.; read-out: NDM-1 IC50
How it was run: as §1

[1] = system: Escherichia coli expressing NDM-1 (CLB30005, CLB30016); format: cell-based; settings: with imipenem 1 μg/ml; for Escherichia coli expressing NDM-1 (CLB30016) MITC95: 95% inhibition of bacterial growth; for Escherichia coli MITC95: NDM-1 strain, 95% inhibition of growth
How it was run: (§2)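 Clinical isolates (E. coli NDM-1, S. marcescens IMP-1, K. pneumoniae VIM-1) were diluted 1:100 from saline suspension into 1.1×CAMHB and exposed to test compound with imipenem at 1 μg/ml. Plates were incubated at 35° C for 22 hours to 24 hours, and growth was read by absorbance.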

[2] = system: Klebsiella pneumoniae expressing VIM-1 (IHMA599644); format: cell-based; settings: for Klebsiella pneumoniae expressing VIM-1 (IHMA599644) MITC95: with imipenem 1 μg/ml, 95% inhibition of bacterial growth; for Klebsiella pneumoniae MITC95: VIM-1 strain IHMA599644, with imipenem 1 μg/ml, 95% inhibition of growth
How it was run: as §2

[3] = system: Serratia marcescens expressing IMP-1 (CL5741); format: cell-based; settings: for Serratia marcescens expressing IMP-1 (CL5741) MITC95: with imipenem 1 μg/ml, 95% inhibition of bacterial growth; for Serratia marcescens MITC95: IMP-1 strain CL5741, with imipenem 1 μg/ml, 95% inhibition of growth
How it was run: as §2

VIM-1 = VIM-1 (Pseudomonas aeruginosa (strain ATCC 15692 / DSM 22644 / CIP 104116 / JCM 14847 / LMG 12228 / 1C / PRS 101 / PAO1), UniProt A0A0F7KYQ8); test: biochemical; settings: CCF2-FA substrate, 30 pM enzyme, 2 hours at 25° C.
Protocol: Enzyme Activity: Determination of IC50
The Class B enzyme activities were measured in the presence of the test inhibitor in a fluorescence assay against a commercially available substrate consisting of a cephalosporin core linking 7-hydroxycoumarin to fluorescein (CCF2-FA). […] In a 384-well microplate, the test inhibitor was incubated with the metallo-β-lactamase enzyme and the substrate for 2 hours at 25° C. […] The IC50 value was determined from semi-logarithmic plots of enzyme inhibition versus inhibitor concentration, with a curve generated using a 4-parameter fit.

[4] = system: Pseudomonas aeruginosa efflux− (MB9799), IMP-1; format: cell-based; settings: C, D serine β-lactamase inhibitor closely related to relebactam; for P. aeruginosa expressing IMP-1, efflux − (MB9799) MITC95: concentration restoring susceptibility to imipenem at 2 μg/mL in the presence of a class A; for Concentration of metallo-β-lactamase inhibitor which restores susceptibility of efflux − (MB9799) strain to imipenem: imipenem at 2 μg/mL, in the presence of a class A
How it was run: (§3)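 P. aeruginosa PAO1-derived IMP-1 strains, efflux+ MB9798 and efflux− MB9799, tested by standard microbroth MIC with imipenem and/or ceftazidime fixed, usually at CLSI breakpoint, plus fixed class A/C β-lactamase inhibitor against AmpC. Inhibitor titrated; concentration restoring susceptibility recorded; MB9798/MB9799 fold difference indicates efflux.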

[5] = system: Pseudomonas aeruginosa MB9798 vs MB9799; settings: ratio MITC95 PA_9798/MITC95 PA_9799
Text: The strain background was Pseudomonas aeruginosa PAO1.
The strain set was then used as a pair to determine the effect of metallo-β-lactamase inhibitors of Formula I on the MIC of imipenem and/or ceftazidime. A fixed concentration of antibiotic was included in standard microbroth MIC tests, usually at the CLSI (Clinical and Laboratory Standards Institute) breakpoint concentration. A fixed amount of a class A/C beta-lactamase inhibitor was also included to inhibit the resident Pseudomonas AmpC enzyme. A serial titration of the metallo-β-lactamase inhibitor was included and the concentration of metallo-β-lactamase inhibitor which restores susceptibility of the strain to the included antibiotic was recorded. That concentration of metallo-β-lactamase inhibitor was then compared between the two strains to determine the fold difference between the efflux+ (MB9798) and efflux− (MB9799) strains. This was taken as an indication of the extent to which the MBLi is subject to efflux.

[6] = system: Pseudomonas aeruginosa efflux+ (MB9798), IMP-1; format: cell-based; set-up: Concentration of metallo-β-lactamase inhibitor which restores susceptibility of efflux + (MB9798) strain to imipenem: unit not given here; settings: C, D serine β-lactamase inhibitor closely related to relebactam; for P. aeruginosa expressing IMP-1, efflux + (MB9798) MITC95: concentration restoring susceptibility to imipenem at 2 μg/mL in the presence of a class A; for Concentration of metallo-β-lactamase inhibitor which restores susceptibility of efflux + (MB9798) strain to imipenem: imipenem at 2 μg/mL, in the presence of a class A
How it was run: as §3

[7] = fluorescence assay, read-out: IMP-1 IC50
[8] = fluorescence assay, read-out: VIM-1 IC50

IMP-1, sequence (P52699 whole entry, looked up, species assumed): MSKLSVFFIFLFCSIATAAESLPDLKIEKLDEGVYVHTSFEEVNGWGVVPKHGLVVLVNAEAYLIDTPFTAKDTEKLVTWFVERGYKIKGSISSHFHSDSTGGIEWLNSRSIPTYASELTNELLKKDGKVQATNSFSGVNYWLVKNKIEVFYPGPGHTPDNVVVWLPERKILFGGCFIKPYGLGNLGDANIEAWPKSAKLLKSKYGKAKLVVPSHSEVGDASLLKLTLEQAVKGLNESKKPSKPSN
NDM-1, sequence (C7C422 whole entry, looked up, species assumed): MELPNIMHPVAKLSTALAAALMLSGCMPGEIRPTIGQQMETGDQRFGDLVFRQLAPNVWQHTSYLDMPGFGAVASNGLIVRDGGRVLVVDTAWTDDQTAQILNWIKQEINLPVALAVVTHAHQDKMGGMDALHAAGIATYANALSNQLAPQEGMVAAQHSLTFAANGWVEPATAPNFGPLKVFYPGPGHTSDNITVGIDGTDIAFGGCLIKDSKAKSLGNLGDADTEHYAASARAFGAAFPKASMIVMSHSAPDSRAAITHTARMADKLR

Compound | IC50 (IMP-1; IMP-1 IC50, fluorescence assay) | IC50 (NDM-1) | Escherichia coli expressing NDM-1 (CLB30016) MITC95 [1] | Klebsiella pneumoniae expressing VIM-1 (IHMA599644) MITC95 [2] | Serratia marcescens expressing IMP-1 (CL5741) MITC95 [3] | IC50 (VIM-1; VIM-1 IC50, fluorescence assay) | IC50 (IMP-1; [7]) | IC50 (VIM-1; [8]) | P. aeruginosa expressing IMP-1, efflux − (MB9799) MITC95 [4] | Efflux ratio [5] | P. aeruginosa expressing IMP-1, efflux + (MB9798) MITC95 [6] | Escherichia coli MITC95 [1] | Klebsiella pneumoniae MITC95 [2] | Serratia marcescens MITC95 [3] | Concentration of metallo-β-lactamase inhibitor which restores susceptibility of efflux − (MB9799) strain to imipenem [4] | Concentration of metallo-β-lactamase inhibitor which restores susceptibility of efflux + (MB9798) strain to imipenem [6]
C[C@H](CN)NS(=O)(=O)c1ccc(-c2cccc3sc(N)nc23)c(-c2nnn[nH]2)c1S(N)(=O)=O [Example 72, (R)-4-(2-aminobenzo[d]thiazol-4-yl)-N^1-(1-aminopropan-2-yl)-3-(1H-tetrazol-5-yl)benzene-1,2-disulfonamide] | 0.27 nM | 0.02 nM | 1.563 µM | 3.125 µM | 1.563 µM | 0.26 nM |  |  |  |  |  |  |  |  |  | 
Nc1nc2c(-c3ccc(S(=O)(=O)NC4C[C@@H]5CN[C@H]4C5)c(S(N)(=O)=O)c3-c3nnn[nH]3)cccc2s1.O=CO (stereo partly drawn) [Example 119, 4-(2-aminobenzo[d[thiazol-4-yl)-N1-((1S,4R)-2-azabicyclo[2.2.1]heptan-6-yl)-3-(1H-tetrazol-5-yl)benzene-1,2-disulfonamide, formate salt] |  | 0.0407 nM |  |  |  |  | 0.223 nM | 0.254 nM |  |  |  |  |  |  |  | 
Nc1nc2c(-c3ccc(S(=O)(=O)NC4C[C@@H]5CN[C@H]4C5)c(S(N)(=O)=O)c3-c3nnn[nH]3)cccc2s1.O=CO (stereo partly shown) [Example 119] |  |  | 1.563 µM | 3.125 µM | 1.563 µM |  |  |  | 1.563 µM | 0.50 | 0.7813 µM |  |  |  |  | 
C[N+]1(C)CC[C@@H](NS(=O)(=O)c2ccc(-c3cccc4[nH]c(N)nc34)c(-c3nn[nH]n3)c2S(N)(=O)=O)C1.[Cl-] [Example 233, (R)-3-((4-(2-amino-1H-benzo[d]imidazol-4-yl)-2-sulfamoyl-3-(2H-tetrazol-5-yl)phenyl)sulfonamido)-1,1-dimethylpyrrolidin-1-ium chloride] |  | 0.0225 nM | 0.3906 µM | 1.563 µM | 0.3906 µM |  | 0.305 nM |  | 1.563 µM | 1.00 | 1.563 µM |  |  |  |  | 
C[N+]1(CCN)CC[C@H](NS(=O)(=O)c2ccc(-c3cccc4[nH]c(N)nc34)c(-c3nn[nH]n3)c2S(N)(=O)=O)C1.O=C([O-])O (stereo partly drawn) [Example 249, (3S)-3-{[4-(2-amino-1H-1,3-benzodiazol-4-yl)-2-sulfamoyl-3-(2H-1,2,3,4-tetrazol-5-yl)benzene]sulfonamido}-1-(2-aminoethyl)-1-methylpyrrolidin-1-ium methaneperoxoate] |  | 0.0153 nM |  |  |  |  | 0.342 nM |  | 0.7813 µM | 1.00 | 0.7813 µM | 0.3906 µM | 1.563 µM | 1.563 µM |  | 
NC[C@H]1CCN(S(=O)(=O)c2ccc(-c3cccc4[nH]c(N)nc34)c(-c3nn[nH]n3)c2S(N)(=O)=O)C1 [Example 253, (R)-3-(2-amino-1H-benzo[d]imidazol-4-yl)-6-((3-(aminomethyl)pyrrolidin-1-yl)sulfonyl)-2-(2H-tetrazol-5-yl)benzenesulfonamide] |  | 0.884 nM |  |  |  |  | 2.68 nM | 1.53 nM | 0.7813 µM |  | 1.563 µM | 1.563 µM | 1.563 µM | 0.7813 µM |  | 
NCc1nc2c(-c3ccc(S(=O)(=O)NC[C@@H]4CNCCN4)c(S(N)(=O)=O)c3-c3nn[nH]n3)cccc2[nH]1 [Example 311, (S)-4-(2-(aminomethyl)-1H-benzo[d]imidazol-4-yl)-N-(piperazin-2-ylmethyl)-3-(2H-tetrazol-5-yl)benzene-1,2-disulfonamide] |  | 0.0986 nM |  |  |  |  |  | 0.11 nM | 1.563 µM |  | 1.563 µM | 1.563 µM | 3.125 µM | 1.563 µM |  | 
NCCNS(=O)(=O)c1ccc(-c2cccc(C(=O)N[C@@H]3CNC[C@H]3O)c2)c(-c2nn[nH]n2)c1S(N)(=O)=O [Example 344] |  | 1.39 nM |  |  |  |  | 4.26 nM | 0.52 nM | 0.7813 µM |  | 1.563 µM | 0.7813 µM | 1.563 µM | 1.563 µM |  | 
Nc1nc2c(-c3ccc(S(=O)(=O)N[C@@H]4C[C@H]4N)c(S(N)(=O)=O)c3-c3nn[nH]n3)cccc2s1 [Example 388, 4-(2-amino-1,3-benzothiazol-4-yl)-N^1-[(1R,2R)-2-aminocyclopropyl]-3-(2H-tetrazol-5-yl)benzene-1,2-disulfonamide] |  | 0.0884 nM |  |  |  | 0.375 nM |  |  | 3.125 µM |  | 1.563 µM | 3.125 µM | 6.25 µM | 3.125 µM |  | 
Nc1ccc(-c2ccc(S(=O)(=O)N[C@H]3CNC[C@H]3N)c(S(N)(=O)=O)c2-c2nn[nH]n2)cn1 [Example 413] |  | 0.248 nM |  |  |  |  | 0.8 nM | 0.3 nM |  |  |  | 0.7813 µM | 3.125 µM | 1.563 µM | 1.563 | 1.563
Nc1ccc(-c2ccc(S(=O)(=O)N[C@@H]3CNC[C@@H]3N)c(S(N)(=O)=O)c2-c2nn[nH]n2)cn1 [Example 414] |  | 0.329 nM |  |  |  |  | 0.786 nM | 0.347 nM |  |  |  | 0.3906 µM | 3.125 µM | 0.7813 µM | 1.563 | 1.563
C[C@H](N)Cc1nc2c(-c3ccc(S(=O)(=O)N[C@@H]4CCNC4)c(S(N)(=O)=O)c3-c3nn[nH]n3)cccc2[nH]1 [Example 441, 4-(2-((S)-2-Aminopropyl)-1H-benzo[d]imidazol-4-yl)-N1-((R)-pyrrolidin-3-yl)-3-(2H-tetrazol-5-yl)benzene-1,2-disulfonamide] |  | 0.0811 nM |  |  |  |  | 1.23 nM | 0.15 nM |  |  |  | 1.563 µM | 1.563 µM | 1.563 µM | 0.7813 | 1.563
